Literature values, collected in patent publication US9456982B2, “Solid formulations of niacin to counteract cold extremities” (BE-WARM LLC, priority 2014, dated 2016).

Conditions: therapeutic niacin doses; sometimes longer

duration of SVFS flush: 15 to 30 min
Compound: O=C(O)c1cccnc1 [niacin, pyridine-3-carboxylic acid]
